From patent US10245249B2, “Pharmaceutical compositions comprising nitroxyl donors” (Cardioxyl Pharmaceuticals, Inc., priority 2013, dated 2019)

Columns and labels:
heart failure canines = assay: Hemodynamic efficacy in heart failure canines (tachycardia-pacing model); assay type: in vivo, beagle dogs; conditions: for ESP / ESPVR / HR / PRSW / SW / Tau / EDV: heart failure canines, i.v. infusion; for ESP / ESPVR / HR / PRSW / SW / Tau: Dose Rate (μmol/kg/min): CXL-1020 100, (1) 75, (2) 100, (83) 65, (84) 77; for EDV: Dose Rate : CXL-1020 100, (1) 75, (2) 100, (83) 65, (84) 77; for hemodynamic activity compared with CXL-1020: both normal and failing canine models, FIG. 1
Procedure: The cardiovascular effects of nitroxyl donors were examined by means of pressure-volume (PV) curve (loops) analysis in conscious, sling-restrained beagle dogs. Animals were allowed free access to drinking water and a commercial canine diet under standard laboratory conditions. Fluorescent lighting was provided via an automatic timer for approximately 12 hours per day. On occasion, the dark cycle was interrupted intermittently due to study-related activities. Temperature and humidity were monitored and recorded daily and maintained to the maximum extent possible between 64° F. and 84° F. and 30% to 70%, respectively. The dogs were acclimated for a period of at least 1 week prior to surgery. Following surgery and recovery the animals were acclimated to sling restraint for a period up to 4.5 hours. Animals were fasted overnight prior to surgery. An indwelling venous catheter was placed in peripheral vein (e.g., cephalic) for administration of anesthetic. General anesthesia was induced intravenously (bolus) with buprenorphine (about 0.015 mg/kg) followed by an intravenous bolus of propofol (about 6 mg/kg). Additionally, a prophylactic antibiotic (cefazolin 20 to 50 mg/kg via i.v.) was given upon induction. […] Anesthesia was maintained with inhaled isoflurane (1% to 3%). Once a stable (surgical) plane of anesthesia had been established, a left-thoracotomy was performed (under strict aseptic conditions) and each animal was chronically instrumented with sono-micrometry crystals providing left-ventricular (LV) dimensions/volume. Additionally, a fluid-filled catheter and a solid-state monometer were placed in the left ventricle for pressure monitoring. A fluid-filled catheters was placed in the right ventricle (RV) and the aorta (Ao) for pressure monitoring/test article administration. […] The catheters/wires were aseptically tunneled and externalized between the scapulae. Over the course of the study, fluid-filled catheters were regularly (at least once weekly) flushed with a locking-solution in order to prevent both clotting and bacterial growth (2-3 mL of Taurolidine-Citrate solution, TCS-04; Access Technologies). Following the cardiovascular instrumentation, the right jugular vein was carefully exposed and cannulated with a bipolar pacing lead/catheter ([…]® Novus; Medtronic). Under fluoroscopic guidance, this pacing lead was advanced normograde into the right ventricle and actively affixed (screwed in) to the apical endocardium. The proximal end of the lead was secured to the pacing device (Kappa 900; Medtronic). Subsequently, the pacemaker was placed/secured in a subcutaneous pocket in the neck. Considering that the heart was exposed via a thoracotomy, a bipolar pacing wire was secured in the right ventricular mid-myocardium. This pacing lead was tunneled/externalized between the scapulae, and used in conjunction with an external impulse generator/pacemaker. The implanted endocardial pacemaker was used as a back-up to the external/epicardial pacemaker. Prior to closure of the chest from the thoracotomy, a chest tube was placed for drainage of any fluid and/or gas that accumulated from the surgical procedure. The tube was aspirated twice daily until the amount of fluid removed was less than 35 mL per aspiration in an approximately 24 hour period. The chest tube was then removed. All animals were administered a prophylactic antibiotic (cefazolin 20 to 50 mg/kg via i.v.) and pain medication (meloxicam at about 0.2 mg/kg via i.v.). If necessary, an additional analgesic was also administered which included a fentanyl patch (25 to 50 mcg/hour). All surgical incisions were closed in layers; the underlying musculature was closed with absorbable sutures and the skin was closed with staples. Following surgery, the animals were allowed to recover for at least 14 days. Cephalexin (20 to 50 mg/kg) was administered orally BID for at least 7 days and meloxicam (0.1 mg/kg) was administered SID orally or subcutaneously for at least 2 days after surgery. […]

[1] = HNO production determined via N2O quantification (GC headspace analysis); assay type: physicochemical; conditions: PBS, 37° C.
Procedure, shortened: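 Compounds dissolved in argon-purged anhydrous DMF were added to argon-purged PBS in sealed vials at 37° C for the set incubation time; headspace N2O was measured by GC with micro-ECD. N2O gas and CXL-1020 served as standards, and relative N2O yield (%) was calculated per incubation time.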

Row | SMILES | ESP (heart failure canines) | ESPVR (heart failure canines) | HR (heart failure canines) | PRSW (heart failure canines) | SW (heart failure canines) | Tau (heart failure canines) | EDV (heart failure canines) | Relative N2O Yield (90 minutes incubation) [1] | hemodynamic activity compared with CXL-1020 (heart failure canines) | Relative N2O Yield (360 minutes incubation) [1]
1 | CS(=O)(=O)c1ccccc1S(=O)(=O)NO [CXL-1020, N-hydroxy-2-methanesulfonylbenzene-1-sulfonamide, reference compound] | −14.78 ± 3.24 % Change from Baseline | 45.42 ± 16.48 % Change from Baseline | −0.23 ± 2.25 % Change from Baseline | 21.97 ± 3.79 % Change from Baseline | −12.01 ± 4.24 % Change from Baseline | −17.27 ± 1.39 % Change from Baseline | −12.03 ± 3.72 % Change from Baseline | – | – | –
2 | Cc1ccc(S(=O)(=O)NO)o1 [Compound 1, N-Hydroxy-5-methylfuran-2-sulfonamide] | −17 ± 1 % Change from Baseline | 29 ± 1 % Change from Baseline | −6 ± 2 % Change from Baseline | 22 ± 1 % Change from Baseline | 10 ± 5 % Change from Baseline | −16 ± 4 % Change from Baseline | −9 ± 2 % Change from Baseline | 52% | comparable hemodynamic activity to CXL-1020 | –
3 | CS(=O)(=O)c1cccc(S(=O)(=O)NO)c1 [Compound 2, N-Hydroxy-3-methanesulfonylbenzene-1-sulfonamide] | −13.83 ± 3.30 % Change from Baseline | 22.84 ± 5.69 % Change from Baseline | −1.36 ± 2.06 % Change from Baseline | 17.91 ± 1.47 % Change from Baseline | −9.41 ± 2.84 % Change from Baseline | −12.51 ± 2.72 % Change from Baseline | −3.26 ± 1.05 % Change from Baseline | 82% | comparable hemodynamic activity to CXL-1020 | 94%
4 | O=S(=O)(NO)c1ccco1 [Compound 83, N-Hydroxyfuran-2-sulfonamide] | −18.52 ± 2.59 % Change from Baseline | 38.06 ± 8.79 % Change from Baseline | 0.05 ± 1.25 % Change from Baseline | 14.90 ± 2.27 % Change from Baseline | −9.63 ± 1.70 % Change from Baseline | −18.32 ± 3.06 % Change from Baseline | −4.91 ± 0.57 % Change from Baseline | 42% | comparable hemodynamic activity to CXL-1020 | 86%
5 | Cc1ccc(S(=O)(=O)NO)s1 [Compound 84, N-Hydroxy-5-methylthiophene-2-sulfonamide] | −13.72 ± 2.83 % Change from Baseline | 51.01 ± 5.85 % Change from Baseline | 3.72 ± 2.45 % Change from Baseline | 25.03 ± 2.52 % Change from Baseline | −5.96 ± 1.58 % Change from Baseline | 15.61 ± 1.58 % Change from Baseline | −13.43 ± 4.63 % Change from Baseline | 52% | comparable hemodynamic activity to CXL-1020 | 67%
6 | Cn1ccc(S(=O)(=O)NO)n1 [Compound 85, N-Hydroxy-1-methyl-1H-pyrazole-3-sulfonamide] | – | – | – | – | – | – | – | 33.5% | comparable hemodynamic activity to CXL-1020 | –
